Values joined by “and” are separate entries in the source; they are usually repeats but may differ in a detail not shown here. Equal values may be shown once.
Assays:
[1] = target: T1, Hordeum HPPD (SEQ ID: 2) F404L (Hordeum vulgare, UniProt O48604, A164G/F404L/R146V/R147D/R148G); assay: HPPD activity assay, in vitro characterization of HPPD mutants; assay type: biochemical; settings: Table 16, Hordeum wild-type = 1
T1 construct: His (N); made in house; host or cells: E. coli BL21 (DE3)
Description: (§1) HPPD produces homogentisic acid and CO2 from 4-hydroxyphenylpyruvate (4-HPP) and 02. The activity assay for HPPD is based on the analysis of homogentisic acid by reversed phase HPLC. The assay mixture can contain 150 mM potassium phosphate buffer pH 7.0, 50 mM L-ascorbic acid, 100 μM Catalase (Sigma-Aldrich), 1 μM FeSO4 and 0.2 units of purified HPPD enzyme in a total volume of 505 μl. 1 unit is defined as the amount of enzyme that is required to produce 1 nmol of HGA per minute at 20° C.
(§2) After a preincubation of 30 min the reaction is started by adding 4-HPP to a final concentration of 0.05 mM. The reaction is allowed to proceed for 45 min at room temperature. The reaction is stopped by the addition of 50 μl of 4.5 M phosphoric acid. The sample is filtered using a […] pore size PVDF filtration device.
(§3) 5 μl of the cleared sample is analyzed on an UPLC HSS T3 column (particle size 1.8 μm, dimensions 2.1×50 mm; Waters) by isocratic elution using 90% 20 mM NaH2PO4 pH 2.2, 10% methanol (v/v).
(§4) HGA is detected electrochemically at 750 mV (mode: DC; polarity: positive) and quantified by integrating peak areas (Empower software; Waters).
(§5) Inhibitors are dissolved in DMSO (dimethylsulfoxide) to a concentration of 0.5 mM. From this stock solution serial five-fold dilutions are prepared in DMSO, which are used in the assay. The respective inhibitor solution accounts for 1% of the assay volume. […] Activities are normalized by setting the uninhibited enzyme activity to 100%. IC50 values are calculated using non-linear regression.
(§6) Purified, mutant HPPD enzymes are obtained by the methods described above. Dose response and kinetic measurements are carried out using the described HPPD activity assay. Apparent michaelis constants (Km) and maximal reaction velocities (Vmax) are calculated by non-linear regression with the software GraphPad Prism 5 (Graph Pad Software, La Jolla, USA) using a substrate inhibition model. […] Weighted means (by standard error) of Km and IC50 values are calculated from at least three independent experiments.
(§7) Field performance of the optimized HPPD enzyme, which is used as a herbicide tolerance trait may depend not only on its lack of sensitivity towards HPPD inhibiting herbicides but also on its activity. To assess the potential performance of a herbicide tolerance trait a tolerance index (TI) is calculated using the following formula: […]
(§8) Easy comparison and ranking of each trait is enabled by normalizing tolerance indexes on Arabidopsis wild-type HPPD.

[2] = target: T2, Hordeum HPPD (SEQ ID: 2) L320H (Hordeum vulgare, UniProt O48604, A164G/L320H/R146V/R147D/R148G); assay: as above; assay type: biochemical; settings: Table 16, Hordeum wild-type = 1
T2 construct: His (N); made in house; host or cells: E. coli BL21 (DE3)
T2 sequence (O48604 whole entry R146V/R147D/R148G/A164G/L320H): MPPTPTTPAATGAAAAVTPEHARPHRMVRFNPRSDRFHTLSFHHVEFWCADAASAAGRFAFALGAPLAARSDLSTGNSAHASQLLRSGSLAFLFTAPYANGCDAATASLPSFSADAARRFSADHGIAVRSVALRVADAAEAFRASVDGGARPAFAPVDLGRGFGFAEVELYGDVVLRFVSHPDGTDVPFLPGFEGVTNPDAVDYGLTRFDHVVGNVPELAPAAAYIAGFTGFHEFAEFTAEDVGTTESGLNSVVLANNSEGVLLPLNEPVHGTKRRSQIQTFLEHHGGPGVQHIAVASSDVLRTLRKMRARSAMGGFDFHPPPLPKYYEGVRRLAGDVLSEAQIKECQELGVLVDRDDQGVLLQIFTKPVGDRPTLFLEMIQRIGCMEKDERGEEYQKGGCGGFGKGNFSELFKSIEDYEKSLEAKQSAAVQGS
Description: as §1, §2, §3, §4, §5, §6, §7, §8

[3] = target: T3, Hordeum HPPD (SEQ ID: 2) L320H, P321A (Hordeum vulgare, UniProt O48604, L320H/P321A); assay: as above; assay type: biochemical; settings: Table 16, Hordeum wild-type = 1
T3 construct: His (N); made in house; host or cells: E. coli BL21 (DE3)
T3 sequence (O48604 whole entry R146V/R147D/R148G/A164G/L320H/P321A): as the sequence (O48604 whole entry R146V/R147D/R148G/A164G/L320H) above, with P321A counted along it
Description: as §1, §2, §3, §4, §5, §6, §7, §8

[4] = target: T4, Hordeum HPPD (SEQ ID: 2) L320Q (Hordeum vulgare, UniProt O48604, A164G/L320Q/R146V/R147D/R148G); assay: as above; assay type: biochemical; settings: Table 16, Hordeum wild-type = 1
T4 construct: His (N); made in house; host or cells: E. coli BL21 (DE3)
T4 sequence (O48604 whole entry R146V/R147D/R148G/A164G/L320Q): as the sequence (O48604 whole entry R146V/R147D/R148G/A164G/L320H) above, with H320Q counted along it
Description: as §1, §2, §3, §4, §5, §6, §7, §8

[5] = target: T5, Hordeum HPPD (SEQ ID: 2) L353M, P321R, L320N (Hordeum vulgare, UniProt O48604, L320N/L353M/P321R); assay: as above; assay type: biochemical; settings: Table 16, Hordeum wild-type = 1
T5 construct: His (N); made in house; host or cells: E. coli BL21 (DE3)
T5 sequence (O48604 whole entry R146V/R147D/R148G/A164G/L320N/P321R/L353M): as the sequence (O48604 whole entry R146V/R147D/R148G/A164G/L320H) above, with H320N, P321R, L353M counted along it
Description: as §1, §2, §3, §4, §5, §6, §7, §8

[6] = target: T6, Hordeum HPPD (SEQ ID: 2) R309K (Hordeum vulgare, UniProt O48604, A164G/R146V/R147D/R148G/R309K); assay: as above; assay type: biochemical; settings: Table 16, Hordeum wild-type = 1
T6 construct: His (N); made in house; host or cells: E. coli BL21 (DE3)
T6 sequence (O48604 whole entry R146V/R147D/R148G/A164G/R309K): as the sequence (O48604 whole entry R146V/R147D/R148G/A164G/L320H) above, with R309K, H320L counted along it
Description: as §1, §2, §3, §4, §5, §6, §7, §8

[7] = target: T7, Hordeum HPPD (SEQ ID: 2) S252T (Hordeum vulgare, UniProt O48604, A164G/R146V/R147D/R148G/S252T); assay: as above; assay type: biochemical; settings: Table 16, Hordeum wild-type = 1
T7 construct: His (N); made in house; host or cells: E. coli BL21 (DE3)
T7 sequence (O48604 whole entry R146V/R147D/R148G/A164G/S252T): as the sequence (O48604 whole entry R146V/R147D/R148G/A164G/L320H) above, with S252T, H320L counted along it
Description: as §1, §2, §3, §4, §5, §6, §7, §8

[8] = system: Arabidopsis overexpression line AtHPPD (Seq ID: 53) F381I; assay: Arabidopsis growth inhibition in 48-well plates, tolerance factor; assay type: in vivo, Arabidopsis thaliana; settings: plant growth IC50 of transgenic / wild-type plants
Description: (§9) Arabidopsis thaliana is transformed with HPPD or HST sequences by floral dip method as described by McElver and Singh (WO 2008/124495). Transgenic Arabidopsis plants are subjected to TaqMan analysis for analysis of the number of integration loci.
(§10) Depending on the species, the plants are kept at 10-25° C. or 20-35° C. The test period extends over 3 weeks. During this time, the plants are tended and their response to the individual treatments is evaluated. Herbicide injury evaluations are taken at 2 and 3 weeks after treatment. Plant injury is rated on a scale of 0 to 9, 0 being no injury and 9 being complete death. Tolerance to HPPD-inhibiting herbicides can also be assessed in Arabidopsis. In this case transgenic Arabidopsis thaliana plants are assayed for improved tolerance to HPPD-inhibiting herbicides in 48-well plates. Seeds are surface sterilized by stirring for 5 min in ethanol+water (70+30 by volume), rinsing one time with ethanol+water (70+30 by volume) and two times with a sterile, deionized water. The seeds are resuspended in 0.1% agar dissolved in water (w/v). Four to five seeds per well are plated on solid nutrient medium consisting of half-strength Murashige Skoog nutrient solution, pH 5.8 (Murashige and Skoog (1962) Physiologia Plantarum 15: 473-497). Compounds are dissolved in dimethylsulfoxid (DMSO) and added to the medium prior solidification (final DMSO concentration 0.1%). Multi well plates are incubated in a growth chamber at 22° C., 75% relative humidity and 110 μmol Phot*m-2*s-1 with 14:10 h light:dark photoperiod. Seven to ten days after seeding growth inhibition is evaluated by comparison to wild-type plants. Tolerance factor is calculated by dividing the plant growth IC50 value of transgenic plants containing a HPPD and/or HST sequence by that of wild-type plants.

[9] = system: Arabidopsis overexpression line AtHPPD (Seq ID: 53) M335H, P336G, E363Q; assay: as above; assay type: in vivo, Arabidopsis thaliana; settings: plant growth IC50 of transgenic / wild-type plants
Description: as §9, §10

[10] = system: Arabidopsis overexpression line HvHPPD (SEQ ID: 2) L320H, P321A; assay: as above; assay type: in vivo, Arabidopsis thaliana; settings: plant growth IC50 of transgenic / wild-type plants
Description: as §9, §10

[11] = system: Arabidopsis overexpression line HvHPPD (SEQ ID: 2); assay: as above; assay type: in vivo, Arabidopsis thaliana; settings: plant growth IC50 of transgenic / wild-type plants
Description: as §9, §10

[12] = system: Arabidopsis overexpression line Picrophilus HPPD; assay: as above; assay type: in vivo, Arabidopsis thaliana; settings: plant growth IC50 of transgenic / wild-type plants
Description: as §9, §10

T1 sequence (O48604 whole entry R146V/R147D/R148G/A164G/F404L): as the sequence (O48604 whole entry R146V/R147D/R148G/A164G/L320H) above, with H320L, F404L counted along it

Cc1c(C(=O)Nc2nnnn2C)ccc2c1C(=O)C(C)(C)CS2(=O)=O [Inhibitor 2, 3,3,5-trimethyl-N-(1-methyltetrazol-5-yl)-1,1,4-trioxo-2H-thiochromene-6-carboxamide]
TI Inhibitor 2 (normalized tolerance index) [1]: 3 and 3.1
TI Inhibitor 2 (normalized tolerance index) [2]: 4.4
TI Inhibitor 2 (normalized tolerance index) [3]: 3.6
TI Inhibitor 2 (normalized tolerance index) [4]: 1.4
TI Inhibitor 2 (normalized tolerance index) [5]: 3.5
TI Inhibitor 2 (normalized tolerance index) [6]: 2.8
TI Inhibitor 2 (normalized tolerance index) [7]: 5.9
Tolerance factor towards Inhibitor 2 [8]: 60.8
Tolerance factor towards Inhibitor 2 [9]: 60.8
Tolerance factor towards Inhibitor 2 [10]: 7.9
Tolerance factor towards Inhibitor 2 [11]: 10.2
Tolerance factor towards Inhibitor 2 [12]: 2.6

COc1no[nH]/c1=N/C(=O)c1ccc2c(c1Cl)S(=O)(=O)CCC2(C)C [Inhibitor 1, (NE)-8-chloro-N-(4-methoxy-1,2,5-oxadiazol-3-ylidene)-4,4-dimethyl-1,1-dioxo-2,3-dihydrothiochromene-7-carboxamide]
TI Inhibitor 1 (normalized tolerance index) [1]: 2.1
TI Inhibitor 1 (normalized tolerance index) [2]: 0.6
TI Inhibitor 1 (normalized tolerance index) [3]: 0.5
TI Inhibitor 1 (normalized tolerance index) [4]: 0.1
TI Inhibitor 1 (normalized tolerance index) [5]: 0.2
TI Inhibitor 1 (normalized tolerance index) [6]: 0.4
TI Inhibitor 1 (normalized tolerance index) [7]: 2.4
Tolerance factor towards Inhibitor 1 [8]: 37.5
Tolerance factor towards Inhibitor 1 [9]: 15.8
Tolerance factor towards Inhibitor 1 [10]: 85
Tolerance factor towards Inhibitor 1 [11]: 76
Tolerance factor towards Inhibitor 1 [12]: 4.5
